For 52 molecules, EC50, IC50 and outcome results are on record in PubChem BioAssay AID179 (DTP/NCI, 2004).

Active and inactive are the calls of the source.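 How the source made its calls: active means compounds giving half or more protection of infected cells from virus-caused growth loss, again on retest; inactive means the rest.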

In this experiment the test system is CEM cells HIV-1 protection, formazan growth assay. Put plainly: NCI AIDS Antiviral Assay. The note with it: for IC50: measured here: growth of uninfected CEM cells. The essentials: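 Category rules: moderately active means at least 50% protection on retest, and confirmed active means 100% protection reproducibly. The underlying data came from a formazan growth assay in HIV-1-infected CEM cells.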

`C=CCN1C(=O)CSC1=S`: the EC50 was greater than 288 µM and the 50% inhibitory concentration (IC50) is 13.5 µM.
`NC(=O)NNc1nc2ccccc2c(=O)n1NC(=O)C(=O)Nc1ccc(Cl)cc1Cl`: the EC50 was greater than 79.4 µM and the 50% inhibitory concentration (IC50) was greater than 79.4 µM.
With `Cc1cccc(C)c1NC(=O)CCc1nnc2s/c(=C\c3ccc(N(C)C)cc3)c(=O)n12`, the EC50 was greater than 1.7 µM and the IC50 is greater than 1.7 µM.
For `COC(=O)C1(C)CCCC2(C)C1CCC1(O)C(O)C(C(C)C)=CCC21` (configuration not stated), the EC50 was greater than 200 µM and the IC50 is 56.2 µM.
On to `CCCCN=NNc1cn(C2OC(CO)C(O)C2O)c(=O)[nH]c1=O` (configuration not stated), for which the EC50 is greater than 200 µM and the IC50 was greater than 200 µM.
For the molecule `Nc1ccc(S(=O)(=O)C(=O)O)cc1`, the EC50 is greater than 1230 µM and the IC50 is greater than 1230 µM.
For the molecule `C[N+](C)(C)CC(=O)N/N=C(\C(=O)Nc1ccc(Cl)cc1)C1C(=O)N(c2ccccc2)N=C1N` (configuration not stated), the EC50 is greater than 17.8 µM and the IC50 is greater than 17.8 µM.
Take `Cc1c2c(n(CCc3ccccc3)c1C)NN=C(C#N)S2(=O)=O`: the EC50 is greater than 200 µM and the IC50 is greater than 200 µM.
On to `Oc1cccc2c(Cl)ccnc12`, for which the EC50 is greater than 20 µM and the half-inhibitory concentration (IC50) was 1.58 µM.
Consider `N#Cc1cc2cccn2c2c1cnn2-c1ccccc1`, for which the EC50 is greater than 200 µM and the IC50 is 43.7 µM.
With `O=C1CC(Cc2n[nH]c3c2CCCC3)CC(=O)N1`, the EC50 is greater than 200 µM and the half-maximal inhibitory concentration (IC50) is greater than 200 µM.
As to `c1cncc(-c2ncc3cccnc3n2)c1`, the EC50 is greater than 100 µM and the IC50 was greater than 100 µM.
For the molecule `O=C(O)C(CP(=O)(O)O)=C(Cl)Cl`, the EC50 is greater than 741 µM and the IC50 is greater than 741 µM.
With `O=C(O)Cc1ccc2c(c1)C(=O)c1ccccc1CO2`, the result was inactive.
In the case of `CCCCN(C(=O)NCCC)S(=O)(=O)c1ccc(Cl)cc1`, the outcome was inactive.
Regarding `CC(C)=CC1CC(n2cc(C)c(=O)[nH]c2=O)ON1CCO[Si](C)(C)C(C)(C)C` (configuration not stated), the result was inactive.
`Cn1cc(NC(=O)c2cc(NC(=O)CCCCCCC(=O)Nc3cc(C(=O)Nc4cc(C(=O)NCCC(=N)N)n(C)c4)n(C)c3)cn2C)cc1C(=O)NCCC(=N)N`: the EC50 was greater than 204 µM and the IC50 turned out to be 35.5 µM.
The matching figures for `C/C(N)=C\c1nc(=O)ccs1`: greater than 178 µM and 129 µM.
Regarding `CC(=O)Oc1ccc2ccccc2c1Br`, the EC50 was greater than 200 µM and the 50% inhibitory concentration (IC50) turned out to be 112 µM.
Take `CC(=O)O/N=C/c1cc2c(cc1Br)OCO2`: the EC50 is greater than 18.2 µM and the half-inhibitory concentration (IC50) was greater than 18.2 µM.
Consider `CN(C)CC1COC2Cc3ccccc3C1O2` (configuration not stated), for which the EC50 was greater than 200 µM and the 50% inhibitory concentration (IC50) is greater than 200 µM.
On to `N#C/C1=C(\C#N)CCC2(C#N)C3C=CC(O3)C2(C#N)CC1` (configuration not stated), for which the EC50 is greater than 295 µM and the 50% inhibitory concentration (IC50) came out at 34.7 µM.
As for `CC1C[C@@]23C4CCCN2CC2OC2[C@@]13C1CC4OC1=O` (some centres not stated), the EC50 was greater than 182 µM and the IC50 is greater than 182 µM.
As for `c1cc2c(c(NC3=NCCO3)c1)CCC2`, the EC50 was greater than 200 µM and the half-inhibitory concentration (IC50) amounted to 112 µM.
Turning to `Cc1ccc2oc(=O)c(C#N)c(/C=C\c3ccccc3O)c2c1`, the EC50 was greater than 100 µM and the IC50 is 5.62 µM.
As to `O=C(Nc1ccc(Cl)cc1)c1cc(S(=O)(=O)Nc2nc3ncccc3[nH]2)c(SSc2cc(Cl)c(C(=O)Nc3ccc(Cl)cc3)cc2S(=O)(=O)Nc2nc3ncccc3[nH]2)cc1Cl`, the EC50 is greater than 200 µM and the 50% inhibitory concentration (IC50) was greater than 200 µM.
Turning to `CCN(C(=O)c1ccccc1C)C(c1ccccc1)P(=O)(c1ccccc1)c1ccccc1` (configuration not stated), the outcome was inactive.
In the case of `O=C1OCC(Cc2ccc(O)c(O)c2)[C@H]1Cc1ccc(O)c(O)c1` (some centres not stated), the EC50 was greater than 200 µM and the half-maximal inhibitory concentration (IC50) was 19.1 µM.
Turning to `CCC1C(NC(=O)OC)C(=O)N1[C@@H](C)c1ccccc1` (some centres not stated), the EC50 was greater than 200 µM and the IC50 was greater than 200 µM.
For the molecule `COc1ccc2[nH]c3c(c2c1)[C@H]1CCC(C(C)(C)C)C[C@H]1[C@H]1C(=O)N(c2ccccc2)C(=O)[C@@H]31` (some centres not stated), the EC50 was greater than 7.94 µM and the half-maximal inhibitory concentration (IC50) was greater than 7.94 µM.
Regarding `COc1cc2cc3c4cc(OC)c(OC)cc4cc(C)[n+]3cc2cc1OC`, the outcome was inactive.
For `Cc1csc2nc(-c3ccncc3)cn12`, the EC50 is greater than 417 µM and the half-inhibitory concentration (IC50) came out at 105 µM.
In the case of `[O-]c1c2c(nn1-c1ccccc1)c1ccccc1c[n+]2Cc1ccccc1`, the outcome was inactive.
As to `Cc1occc1C(=S)Nc1ccc(Cl)c(C(=O)OCC2CC2)c1`, the EC50 is 0.0186 µM and the IC50 is 53.7 µM.
The matching figures for `COC(=O)/C=C(/Sc1nc(Cl)c(Cl)nc1N)C(=O)OC` (tested in a mixture with another compound): greater than 200 µM and 2.45 µM.
Consider `O=S1(=O)CC(c2ccccc2)=NN=C(c2ccccc2)C1`, for which the EC50 was greater than 61.7 µM and the IC50 is greater than 61.7 µM.
Regarding `Cc1ccc(-c2csc(=Nc3c(C)n(C)n(-c4ccccc4)c3=O)n2CCO)cc1`, the EC50 is greater than 200 µM and the 50% inhibitory concentration (IC50) is 79.4 µM.
The matching figures for `O=C(C1OC1c1ccc(Br)cc1O)C12CC3CC(CC(C3)C1)C2` (configuration not stated): greater than 200 µM and 110 µM.
In the case of `O=C([O][Bi]([c]1ccccc1)[c]1ccccc1)C(F)(F)F`, the EC50 is greater than 20 µM and the 50% inhibitory concentration (IC50) amounted to 15.1 µM.
On to `Cc1csc(NC23CC4CC(CC(C4)C2)C3)[n+]1C(P(=O)([O-])O)P(=O)(O)O` (configuration not stated), for which the EC50 is greater than 200 µM and the 50% inhibitory concentration (IC50) was greater than 200 µM.
Take `Cc1c(/C=N/NC(=O)c2ccccc2O)c(=O)n(-c2ccccc2)n1C`: the EC50 is greater than 200 µM and the half-maximal inhibitory concentration (IC50) is 69.2 µM.
The matching figures for `COC(=O)C1=C(C)N2CCOC2(C)C(C(=O)OC)C1c1ccc[nH]1` (configuration not stated): greater than 200 µM and greater than 200 µM.
With `Cn1ccnc1Oc1ccc(Cl)cc1`, the EC50 is greater than 200 µM and the IC50 turned out to be 9.77 µM.
Regarding `CCC1NC(N=Nc2ccc([N+](=O)[O-])cc2)(P(=O)(OC(C)C)OC(C)C)OC1=O` (configuration not stated), the EC50 was greater than 219 µM and the IC50 is greater than 219 µM.
Take `c1ccc2c(c1)oc1ccc3nsnc3c12`: the EC50 was greater than 15.8 µM and the IC50 is greater than 15.8 µM.
Regarding `CCOC(=O)CC(NCc1ccc(N=Cc2nc3ccc(C(F)(F)F)cc3nc2-c2ccccc2)cc1)C(=O)OCC` (configuration not stated), the EC50 was greater than 200 µM and the IC50 was 162 µM.
As for `O=C(NNC(=S)NC1OC(CO)C(O)C(O)C1O)c1cccc(C(=O)NNC(=S)NC2OC(CO)C(O)C(O)C2O)n1` (configuration not stated), the IC50 was greater than 200 µM.
`CCOC(=O)/C(=N/Nc1ccc(C)cc1)N1C(=S)C=C(C)NN(C)C1=S`: the EC50 is greater than 200 µM and the IC50 was greater than 200 µM.
Consider `O=C1CN(c2cccc(Cl)c2)C(=O)CN1CCN1CC(=O)N(c2cccc(Cl)c2)CC1=O`, for which the EC50 is greater than 200 µM and the IC50 is greater than 200 µM.
Take `N#C[C@H](c1nc2ccccc2s1)c1nc2ccccc2nc1Cl`: the EC50 was greater than 100 µM and the 50% inhibitory concentration (IC50) was greater than 100 µM.
For the molecule `O=C(/C=C/c1ccc(OCc2cccc(Cl)c2)cc1)NO`, the EC50 is greater than 200 µM and the IC50 was found to be 25.7 µM.
Consider `C/C(=N\NC(=O)CC(=O)N(C(=O)c1ccccc1Cl)c1ccc(C)cc1)c1ccc(Cl)cc1`, for which the EC50 was greater than 14.1 µM and the IC50 was greater than 14.1 µM.
